Data reported in the supplement of paper PMC10307832.

What was measured:
Assay in all cases: relative viability (nuclei count vs DMSO), 5 days (fraction); higher = more cells survive
[1] = compound: CN(c1ncccc1CNc1nc(Nc2ccc3c(c2)CC(=O)N3)ncc1C(F)(F)F)S(C)(=O)=O + CC(=O)c1c(C)c2cnc(Nc3ccc(N4CCNCC4)cn3)nc2n(C2CCCC2)c1=O [Palbociclib] (partner 0.5 µM)
Summary of the method: (§1)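 Dosing by pin tool came one day after lung cancer cell lines were seeded in 1536-well plates, using either one drug or a fixed anchor-drug dose plus five library-drug doses (not always all listed) in √10 steps. After 5 days, nuclei were counted on 4× images. Relative viability is treated-well nuclei count divided by vehicle-well nuclei count, and values are medians of duplicate plates.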

[2] = compound: CN(c1ncccc1CNc1nc(Nc2ccc3c(c2)CC(=O)N3)ncc1C(F)(F)F)S(C)(=O)=O + N=C(N)NC(=N)NCCc1ccccc1 [Phenformin] (partner 250 µM)
Summary of the method: as §1

[3] = compound: CN(c1ncccc1CNc1nc(Nc2ccc3c(c2)CC(=O)N3)ncc1C(F)(F)F)S(C)(=O)=O + Nc1ncn([C@H]2C[C@H](O)[C@@H](CO)O2)c(=O)n1 [Decitabine] (partner 2 µM)
Summary of the method: as §1

[4] = compound: CN(c1ncccc1CNc1nc(Nc2ccc3c(c2)CC(=O)N3)ncc1C(F)(F)F)S(C)(=O)=O + CS(=O)(=O)N1CCN(Cc2cc3nc(-c4cccc5[nH]ncc45)nc(N4CCOCC4)c3s2)CC1 [Pictilisib] (partner 1 µM)
Summary of the method: as §1

| Cell Line | relative viability ([1]; first compound 0.01 µM) | relative viability ([1]; first compound 0.03162 µM) | relative viability ([1]; first compound 0.1 µM) | relative viability ([1]; first compound 0.3162 µM) | relative viability ([1]; first compound 1 µM) | relative viability ([2]; first compound 0.01 µM) | relative viability ([2]; first compound 0.03162 µM) | relative viability ([2]; first compound 0.1 µM) | relative viability ([2]; first compound 0.3162 µM) | relative viability ([2]; first compound 1 µM) | relative viability ([3]; first compound 0.01 µM) | relative viability ([3]; first compound 0.03162 µM) | relative viability ([3]; first compound 0.1 µM) | relative viability ([3]; first compound 0.3162 µM) | relative viability ([3]; first compound 1 µM) | relative viability ([4]; first compound 0.01 µM) | relative viability ([4]; first compound 0.03162 µM) | relative viability ([4]; first compound 0.1 µM) | relative viability ([4]; first compound 0.3162 µM) | relative viability ([4]; first compound 1 µM) |
| --- | --- | --- | --- | --- | --- | --- | --- | --- | --- | --- | --- | --- | --- | --- | --- | --- | --- | --- | --- | --- |
| H3255 | 0.312 | 0.316 | 0.345 | 0.327 | 0.295 | 0.34 | 0.339 | 0.316 | 0.384 | 0.342 | 0.633 | 0.587 | 0.572 | 0.552 | 0.615 | 0.422 | 0.537 | 0.413 | 0.505 | 0.382 |
| EPLC-272H | 0.366 | 0.357 | 0.358 | 0.353 | 0.299 | 0.307 | 0.309 | 0.339 | 0.327 | 0.345 | 0.367 | 0.339 | 0.357 | 0.397 | 0.336 | 0.256 | 0.269 | 0.298 | 0.209 | 0.336 |
| PC-3 [JPC-3] | 0.606 |  | 0.529 | 0.453 | 0.455 | 0.522 | 0.488 | 0.505 | 0.471 | 0.481 | 0.826 |  | 0.821 | 0.884 | 0.834 | 0.747 | 0.723 | 0.75 | 0.782 | 0.71 |
| NCI-H1793 | 0.314 | 0.321 | 0.328 | 0.341 | 0.324 | 0.398 | 0.384 | 0.403 | 0.247 | 0.197 | 0.494 | 0.563 | 0.458 | 0.45 | 0.432 | 0.285 | 0.393 | 0.208 | 0.319 | 0.265 |
| EKVX | 0.369 | 0.372 | 0.359 | 0.285 | 0.352 | 0.251 | 0.236 | 0.24 | 0.231 | 0.24 | 0.372 | 0.327 | 0.301 | 0.342 | 0.335 | 0.462 | 0.422 | 0.418 | 0.375 | 0.431 |
| ChaGo-K-1 | 0.942 | 0.955 | 0.917 | 0.785 | 0.877 | 0.489 | 0.444 | 0.461 | 0.489 | 0.404 | 0.565 | 0.549 | 0.438 | 0.527 | 0.492 | 0.753 | 0.518 | 0.973 |  | 1.15 |
| NCI-H23 | 0.581 | 0.538 | 0.549 | 0.618 | 0.455 | 0.856 | 0.835 | 0.864 | 0.787 | 0.734 | 0.308 | 0.345 | 0.319 | 0.332 | 0.292 | 0.554 | 0.492 | 0.564 | 0.495 | 0.441 |
| EMC-BAC-2 | 0.494 | 0.503 | 0.518 | 0.511 | 0.491 | 0.628 | 0.568 | 0.496 | 0.551 | 0.452 | 0.994 | 1.02 | 0.915 | 0.963 | 0.982 | 0.576 | 0.505 | 0.465 | 0.528 | 0.5 |
| LOU-NH91 | 0.521 | 0.512 | 0.534 | 0.52 | 0.492 | 0.704 | 0.776 | 0.726 | 0.716 | 0.792 | 0.863 | 0.832 | 0.812 | 0.844 | 0.839 | 0.519 | 0.548 | 0.504 | 0.551 | 0.575 |
| LU99A | 0.406 | 0.517 | 0.465 | 0.411 | 0.448 | 0.874 | 0.706 | 0.952 | 0.924 | 1.15 | 0.959 | 0.996 | 0.907 | 0.874 | 0.913 | 0.314 | 0.357 | 0.342 | 0.373 | 0.335 |
| NCI-H1395 | 0.649 | 0.602 | 0.698 | 0.655 | 0.596 | 0.455 | 0.463 | 0.459 | 0.454 | 0.417 | 0.711 | 0.767 | 0.678 | 0.771 | 0.785 | 0.569 | 0.655 | 0.605 | 0.668 | 0.661 |
| NCI-H460 | 0.147 | 0.179 | 0.148 | 0.21 | 0.15 | 0.599 | 0.75 | 0.499 | 0.484 | 0.495 | 0.477 | 0.702 | 0.537 | 0.493 | 0.549 | 0.338 | 0.425 | 0.437 | 0.367 | 0.418 |
| 201T | 0.35 | 0.348 | 0.354 | 0.343 | 0.323 | 0.43 | 0.394 | 0.445 | 0.443 | 0.437 | 0.846 | 0.856 | 0.808 | 0.85 | 0.771 | 0.697 | 0.666 | 0.613 | 0.675 | 0.647 |
| NCI-H1944 | 0.346 | 0.342 | 0.328 | 0.322 | 0.312 | 0.22 | 0.201 | 0.193 | 0.19 | 0.216 | 0.448 | 0.474 | 0.467 | 0.432 | 0.445 | 0.356 | 0.352 | 0.335 | 0.342 | 0.396 |
| NCI-H2405 | 0.51 | 0.518 | 0.504 | 0.466 | 0.391 | 0.402 | 0.376 | 0.385 | 0.248 | 0.392 | 0.766 | 0.735 | 0.67 | 0.681 | 0.648 | 0.552 | 0.393 | 0.42 | 0.383 | 0.376 |
| NCI-H1703 |  |  |  |  |  |  |  |  |  |  |  |  |  |  |  | 0.266 | 0.243 | 0.248 | 0.229 | 0.235 |
| NCI-H1755 | 0.449 | 0.473 | 0.452 | 0.44 | 0.434 | 0.666 | 0.615 | 0.589 | 0.585 | 0.574 | 0.682 | 0.728 | 0.721 | 0.646 | 0.707 | 0.436 | 0.417 | 0.426 | 0.477 | 0.451 |
